For series [1], the system named is B16 mouse melanoma cells stably expressing human melanocortin receptor MC1R. The experiment in a line: Cyclic-AMP accumulation analysis. The format is cell-based. The conditions noted are these: 600 nM, 1 μM and 10 μM peptide, 10 min. As to the method:
The intracellular cyclic-AMP analysis was performed according to a method described elsewhere, with slight modifications. Briefly, B16 mouse melanoma cells stably expressing human melanocortin receptor MC1R were grown to confluence in DMEM medium (Sigma-Aldrich, USA) containing 10% fetal calf serum (FCS) and 1x anti-anti (Gibco). The cells were seeded in 12-well plates 48 h before assay and grown to 10^5 cells/well. For the assay, the medium was removed and cells were washed with 1 mL of media. Then 1 mL DMEM media (without FCS) containing 100 μM 3-isobutyl-1-methylxanthine (IBMX) was added to each well and incubated for 30 min at 37 °C. The media was then discarded and various concentrations of α-MSH and KKK-MSH viz., 600 nM, 1 μM and 10 μM, in 1 mL fresh 25% DMEM media (without FCS) in PBS containing 100 μM IBMX were added to the appropriate wells and incubated for 10 min at 37 °C, 5% CO2. After 10 min the reaction was stopped by aspirating the media and washing the wells with 1 mL PBS. 200 μL 0.1 M hydrochloric acid was then added to each well and the wells were scrapped. The lysates were centrifuged at 600 rcf for 5 min and the supernatants were collected and diluted 1000 times in 0.1 M HCl and used for analysis of the total cyclic-AMP content using Enzyme Immunoassay Kit (Sigma-Aldrich, USA, CA200) according to the manufacturer’s instructions.

In series [2] the test system is MSSA ATCC 29213. The experiment in a line: Membrane permeabilization, PI uptake by flow cytometry. The format is cell-based, Staphylococcus aureus. The conditions noted are these: 10 μM peptide, 1 h, 37 °C, 10^5 CFU/mL in PBS pH 7.4; >10 a.u. counted positive; mean ± S.D. of three independent experiments. For orientation: In flow cytometry, cells or beads pass a laser one at a time.
Method: The propidium iodide (PI) uptake assay was performed to assess membrane permeabilization by flow cytometry according to a method described elsewhere[58]. MSSA ATCC 29213 cells were grown in BHI broth to mid-logarithmic phase and harvested by centrifugation at 4,000 rpm for 10 min. The cell pellet was washed once with PBS (10 mM sodium phosphate, 150 mM NaCl, pH 7.4) and was adjusted to 10^5 CFU/mL in PBS. The cells were incubated with PI (1.3 μg/mL) at 37 °C for 20 min in the dark. After incubating the cells with PI, cells were exposed to peptides (10 μM) at 37 °C. PI fluorescence was measured after 1 h incubation with excitation and emission wavelength of 544 nm and 620 nm, respectively, using Becton Dickinson (BD) FACS verse, San Jose, CA. The cells having more than 10 fluorescence unit (arbitrary) were considered to be stained with PI.

For series [3], the system named is MSSA ATCC 29213. Nature of the series: 2 h killing assay (colony count), MSSA. The format is cell-based, Staphylococcus aureus. The settings on record: 10 μM peptide, 37 °C, 10^7 CFU/mL MSSA ATCC 29213, 5 mM HEPES, 20 mM glucose, pH 7.4, mean ± S.D. of three independent experiments. As to the method: (§1) To determine the antibacterial activity, cells (MSSA ATCC 29213 and MRSA ATCC 33591) from secondary culture mid-logarithmic phase were used. The cells were centrifuged, washed and re-suspended in buffer (5 mM HEPES, 20 mM glucose, pH 7.4). The re-suspended cells were adjusted to OD600 of 0.5 spectrophotometrically (~10^8 CFU/mL). Desired cell densities were then exposed to 10 μM concentration of α-MSH and other analogues and incubated at 37 °C for 2 h. After 2 h incubation, the cells were diluted in buffer and small aliquots were plated on BHI agar plates. The plates were incubated overnight at 37 °C. Survival was determined by counting of the colony forming unit (CFU/mL) on agar plate using the following formula[23]: […]

Series [4] is described as follows: Lipid binding by Trp fluorescence titration. As for the experimental part: Further, we evaluated the relative binding constants of α-MSH and KKK-MSH to bacterial mimic SUVs to understand if there are differences between lipid binding affinities of these two peptides. Towards this, we incubated a fixed concentration of peptide (12.5 μM) with increasing concentrations of bacterial mimic SUVs (DMPC:DMPG, 7:3, w/w) and concomitant changes in the intensity of emission maxima for Trp residue were recorded. Correction for light scattering was done by subtracting the corresponding spectra of the SUVs alone. […]
Figure 7 Trp fluorescence studies to estimate binding of α-MSH and KKK-MSH to bacterial mimic SUVs. Increasing concentrations of DMPC:DMPG (7:3, w/w) SUVs in 10 mM TES buffer (pH 7.2) were titrated with fixed peptide concentration (12.5 μM) and the emission spectrum was recorded. […] The fluorescence spectrum was recorded at 25 °C by exciting samples at 295 nm and recording emission from 310 nm to 450 nm. […] Contributions from the buffer and SUVs were appropriately subtracted and volume corrected fluorescence values were used to calculate the fraction of bound peptide.
Lipid binding was measured by titrating SUVs (DMPC:DMPG, 7:3, w/w) into 12.5 μM of the peptide by varying lipid to peptide ratio from 75.6 to 3.3. After each addition of lipid, emission spectrum was recorded between 310 to 450 nm using excitation at 295 nm with excitation and emission slit width of 3 nm. […]

The nature of series [5]: RP-HPLC elution, % hydrophobicity. The format is physicochemical. The settings on record: chromatographic, C18 column. The text has this: A balance between hydrophobicity and cationic charge has been reported to be crucial for the activity of many membrane active CAMPs[39][40][41]. […] For α-MSH it has been shown that the minimum energy conformation is a β-turn which is present in the middle of the sequence spanning the putative message region (residues 6–9)[42]. […] Although, acquisition of secondary structure in the vicinity of phospholipid bilayers has been reported to be crucial for activity, there are examples where no direct correlation between peptide structure acquisition ability and antibacterial activity was observed.

The subject of series [6] is MRSA ATCC 33591. Nature of the series: 2 h killing assay (colony count), MRSA. The format is cell-based, Staphylococcus aureus. The settings on record: 10 μM peptide, 37 °C, 10^6 CFU/mL MRSA ATCC 33591, 5 mM HEPES, 20 mM glucose, pH 7.4, mean ± S.D. of three independent experiments. As to the method:
as §1

In series [7] the test system is MSSA ATCC 29213. The format is cell-based, Staphylococcus aureus. The conditions noted are these: at 10.47 μM peptide; thereafter marginal increase up to 41.2 μM. As for the experimental part: The cytoplasmic membrane depolarization was measured using membrane potential sensitive cyanine dye DiSC3(5)[57]. Briefly, mid-logarithmic phase MSSA ATCC 29213 cells were washed and re-suspended in buffer (5 mM HEPES, 20 mM glucose, pH 7.2) to an OD600 of 0.05 which corresponds to ~10^7 CFU/mL. Cells were divided into aliquots and incubated with 2 μM of DiSC3(5) for 1 h to get steady baseline fluorescence intensity. The dye-loaded cells were treated with increasing peptide concentrations (2.1 μM, 10.47 μM, 20.83 μM and 41.23 μM). Fluorescence was monitored in a Shimadzu RF-5301 PC spectrofluorimeter at an excitation wavelength of 622 nm and an emission wavelength of 670 nm. The corresponding killing was measured by plating the aliquots onto BHI agar plate to obtain viable bacterial counts.

Series [8] concerns 3T3 murine fibroblast cell line. The format is cell-based, mouse. As to the method: The cytotoxicity of α-MSH and analogues was tested against 3T3 murine fibroblast cell line using a protocol as described previously. The cell line was propagated at 37 °C in 5% CO2 to over 75% confluence in DMEM supplemented with 10% fetal bovine serum (FBS) and antibiotics and transferred (after treatment with trypsin) to each well of a 24-well plate to a final count of 0.2 × 10^5 cells/well for 24 h. After 24 h, media was aspirated and desired concentration of peptides (50 μM) dissolved in 25% (v/v) DMEM in PBS was added to each well (in triplicate). Triplicate wells without treatment were set as control and wells with 2% Triton X-100 were used as positive control. The plate was kept for 2 h, at 37 °C in 5% CO2 incubator. After 2 h, media was removed and the cells were washed once with 1 mL PBS. In dark, 1 mL MTT (working conc. 0.1 mg/mL) was added to each well and incubated for 2 h at 37 °C. After 2 h, the formazan crystals formed were dissolved in 200 μL of DMSO and kept for 5 min in the incubator. 150 μL of this mixture was transferred to a fresh 96-well plate and absorbance was measured spectrophotometrically at 570 nm. % cytotoxicity was calculated as [(OD570 of control-OD570 of sample)/(OD570 of control)] × 100. The assay was done in triplicate on three different days.

Consider Ac-KYKMKHFRWGKPV-NH2 [KKK-MSH], for which the “Cyclic-AMP levels compared to untreated control” value in series [1] (37 °C, 100 μM IBMX, enzyme immunoassay, p < 0.05) was “dose-dependent elevation in cyclic-AMP”. The “Cyclic-AMP levels compared to α-MSH” value in series [1] (comparable at higher, lower at lower concentration) is “comparable or lower levels of cyclic-AMP”. In addition, the “Cells retaining PI (PI positive cells)” value in series [2] was determined as 67.6 ± 3.4%. Besides, the “Reduction in initial cell count” value is recorded as 4.07 ± 0.92 Log10 CFU/mL in series [3] and 3.81 ± 0.33 Log10 CFU/mL in series [6]. Besides, the “Binding constant to bacterial mimic SUVs” value in series [4] (12.5 μM peptide titrated with DMPC:DMPG (7:3, w/w) SUVs, L:P 75.6 to 3.3, 10 mM TES pH 7.2, 25 °C, hyperbolic fit, one site model) was 15,402.74 M^−1. Also, in series [4] (DMPC:DMPG (7:3, w/w) SUVs, steady-state fluorescence), the “Binding constant relative to α-MSH” value was ~ 18 fold. Moreover, the “% H (% hydrophobicity based on % of acetonitrile at RP-HPLC elution)” value in series [5] stood at 39.9%. In addition, the “Membrane depolarization, relative fluorescence intensity (RFI) of DiSC3(5)” value in series [7] is listed as “appreciable increase in RFI”.

On to Triton X-100, for which the “Cytotoxicity relative to growth control” value in series [8] is listed as 83%.

For the origin of these results see PMC4985751, “Enhanced Cationic Charge is a Key Factor in Promoting Staphylocidal Activity of α-Melanocyte Stimulating Hormone via Selective Lipid Affinity” (Scientific Reports, 2016).
